Literature values, collected in patent US20220401449A1, “COMPOSITIONS PROVIDING SLOW RELEASE OF CAFFEINE AND BEVERAGES COMPRISING THE SAME” (priority 2021, published 2022).
Like-named read-outs stand apart in the source and are kept apart here.

## Cn1c(=O)c2c(ncn2C)n(C)c1=O [caffeine]
80° C.
  caffeine's saturation concentration in water: about 200 mg/ml
Room temperature
  caffeine's saturation concentration in water: about 16 mg/ml
